Test results reported in patent EP4635500A1, “THERAPEUTIC AGENT FOR BACTERIAL INFECTION” (Sumitomo Pharma Co., Ltd., priority 2022, dated 2024).
Converted amounts (≈) assume the structure as drawn. Read-outs that look alike come from different tables or passages of the source.

Key:
Type in all cases: cell-based
Enterobacter aerogenes = test: MIC and MBC, broth microdilution (Example 4, Table 3)
Providencia rettgeri = test: MIC, broth microdilution, standard strains and Japanese clinical isolates (Example 5, Table 4); settings: ATCCBAA2525; KUB4010 Providencia rettgeri ATCC BAA-2525, OXA-181
Klebsiella pneumoniae = test: MIC and MBC, broth microdilution (Example 4, Table 3)
Enterobacter cloacae = test: MIC, broth microdilution, standard strains and Japanese clinical isolates (Example 5, Table 4)
Escherichia coli = test: as above
Serratia marcescens = test: MIC and MBC, broth microdilution (Example 4, Table 3); settings: Serratia marcescens CDC-124 (SME-3)
[1] = test system: Enterobacter cloacae complex; test: as above; settings: Enterobacter cloacae complex CDC-164 (NMC-A)
Enterobacter hormaechei = test: MIC, broth microdilution, standard strains and Japanese clinical isolates (Example 5, Table 4); settings: ATCCBAA2082; KUB4001 Enterobacter hormaechei ATCC BAA-2082, KPC-2
[2] = test system: Metallo-β-lactamase producing strains (N = 27); test: MIC50/MIC90 for carbapenemase-producing isolates (Example 5, Table 6); settings: metallo-β-lactamase-producing strains; combination: Compound A at a fixed concentration of 4 µg/mL; read-out: MIC90
[3] = ATCCBAA2341, KUB4002 Enterobacter cloacae ATCC BAA-2341, KPC-3
[4] = ATCCBAA2468, KUB4006 Enterobacter cloacae ATCC BAA-2468, NDM-1
[5] = ATCCBAA2452, KUB4005 Escherichia coli ATCC BAA-2452, NDM-1
[6] = ATCCBAA2471, KUB4007 Escherichia coli ATCC BAA-2471, NDM-6

## CC(C)(O/N=C(\C(=O)N[C@@H]1C(=O)N2C(C(=O)[O-])=C(C[n+]3ccccc3)CS[C@H]12)c1csc(N)n1)C(=O)O [CAZ, ceftazidime]
Enterobacter aerogenes; Enterobacter aerogenes CDC-161 (IMP-4)
  MBC/MIC ratio: 1
Enterobacter aerogenes; Klebsiella aerogenes
  MBC: 128 µg/mL (≈ 234 µM)
  MIC: 128 µg/mL (≈ 234 µM)
Providencia rettgeri
  MIC: > 32 µg/mL
Klebsiella pneumoniae; ATCCBAA2470, Klebsiella pneumoniae ATCC BAA-2470 (NDM-1), read-out: MIC
  MIC: > 128 µg/mL
Klebsiella pneumoniae; Klebsiella pneumoniae
  MIC: > 128 µg/mL
Klebsiella pneumoniae; Klebsiella pneumoniae ATCC BAA-2524 (OXA-48)
  MBC/MIC ratio: 1
Klebsiella pneumoniae; Klebsiella pneumoniae CDC-505 (NDM-1)
  MIC: >128 µg/mL
Klebsiella pneumoniae; Klebsiella pneumoniae KUB3607 (IMP-1)
  MIC: >128 µg/mL
Klebsiella pneumoniae; Klebsiella pneumoniae NCTC13440 (VIM-1), read-out: MIC
  MIC: > 128 µg/mL
Klebsiella pneumoniae; Klebsiella pneumoniae, ATCCBAA2344
  MIC: > 128 µg/mL
Klebsiella pneumoniae; Klebsiella pneumoniae, ATCCBAA2344, Klebsiella pneumoniae ATCC BAA-2344 (KPC-2)
  MBC: > 128 µg/mL
Klebsiella pneumoniae; Klebsiella pneumoniae, ATCCBAA2470, Klebsiella pneumoniae ATCC BAA-2470 (NDM-1)
  MBC: > 128 µg/mL
Klebsiella pneumoniae; Klebsiella pneumoniae, ATCCBAA2524, Klebsiella pneumoniae ATCC BAA-2524 (OXA-48)
  MBC: 0.5 µg/mL (≈ 0.915 µM)
Klebsiella pneumoniae; Klebsiella pneumoniae, ATCCBAA2524, Klebsiella pneumoniae ATCC BAA-2524 (OXA-48), read-out: MIC
  MIC: 0.5 µg/mL (≈ 0.915 µM)
Klebsiella pneumoniae; Klebsiella pneumoniae, Klebsiella pneumoniae CDC-112 (KPC-3)
  MBC: > 128 µg/mL
Klebsiella pneumoniae; Klebsiella pneumoniae, Klebsiella pneumoniae CDC-505 (NDM-1)
  MBC: > 128 µg/mL
Klebsiella pneumoniae; Klebsiella pneumoniae, Klebsiella pneumoniae KUB3607 (IMP-1)
  MBC: > 128 µg/mL
Klebsiella pneumoniae; Klebsiella pneumoniae, NCTC13440, Klebsiella pneumoniae NCTC13440 (VIM-1)
  MBC: > 128 µg/mL
Enterobacter cloacae; [3]
  MIC: > 32 µg/mL
Enterobacter cloacae; [4]
  MIC: > 32 µg/mL
Escherichia coli; [5]
  MIC: > 32 µg/mL
Escherichia coli; [6]
  MIC: > 32 µg/mL
Serratia marcescens
  MBC: 64 µg/mL (≈ 117 µM)
  MBC/MIC ratio: 256
  MIC: 0.25 µg/mL (≈ 0.457 µM)
[1]
  MBC: 32 µg/mL (≈ 58.5 µM)
  MBC/MIC ratio: 1
  MIC: 32 µg/mL (≈ 58.5 µM)
Enterobacter hormaechei
  MIC: > 32 µg/mL

## CC(C)(O/N=C(\C(=O)N[C@@H]1C(=O)N2C(C(=O)[O-])=C(C[N+]3(CCNC(=O)c4ccc(O)c(O)c4Cl)CCCC3)CS[C@H]12)c1csc(N)n1)C(=O)O [Cefiderocol, cefiderocol]
Providencia rettgeri
  MIC: 2 µg/mL (≈ 2.66 µM)
[2]
  MIC90: 8 µg/mL
Enterobacter cloacae; [3]
  MIC: 0.5 µg/mL (≈ 0.665 µM)
Enterobacter cloacae; [4]
  MIC: 1 µg/mL (≈ 1.33 µM)
Escherichia coli; [5]
  MIC: 0.5 µg/mL (≈ 0.665 µM)
Escherichia coli; [6]
  MIC: 4 µg/mL (≈ 5.32 µM)
Enterobacter hormaechei
  MIC: 2 µg/mL (≈ 2.66 µM)
